Source: ChEMBL document CHEMBL1201862, “PubChem BioAssay data set” (2004)
Calls of active or inactive are those of the source.

Key:
[1] = CellTiter-Glo luminescent dose response of DLD-1 viability loss (AID 1117352); assay type: functional
[2] = HeLa 4N DNA content increase, dose response, cell-based, IC50 (AID 1117351); assay type: functional
[3] = Concentration-dependent survival of SW480 colon cancer line, luminescence detection with CellTiter-Glo, half-maximal inhibitory concentration (AID 1117338); assay type: functional
[4] = molecular target: T1, Polyadenylate-binding protein 1 (Homo sapiens, UniProt P11940); assay: PABP1 MLLE–PAM2 binding inhibitor potency, dose response, biochemical, fluorescence polarization, FITC-PAM2 peptide (AID 602259); assay type: functional; settings: read-out: IC50_Mean
[5] = RKO cell viability reduction, dose response, CellTiter-Glo luminescence (AID 1117322); assay type: functional
[6] = molecular target: T2, Histone-lysine N-methyltransferase NSD2 (Homo sapiens, UniProt O96028); assay type: biochemical
T2 sequence (O96028 whole entry): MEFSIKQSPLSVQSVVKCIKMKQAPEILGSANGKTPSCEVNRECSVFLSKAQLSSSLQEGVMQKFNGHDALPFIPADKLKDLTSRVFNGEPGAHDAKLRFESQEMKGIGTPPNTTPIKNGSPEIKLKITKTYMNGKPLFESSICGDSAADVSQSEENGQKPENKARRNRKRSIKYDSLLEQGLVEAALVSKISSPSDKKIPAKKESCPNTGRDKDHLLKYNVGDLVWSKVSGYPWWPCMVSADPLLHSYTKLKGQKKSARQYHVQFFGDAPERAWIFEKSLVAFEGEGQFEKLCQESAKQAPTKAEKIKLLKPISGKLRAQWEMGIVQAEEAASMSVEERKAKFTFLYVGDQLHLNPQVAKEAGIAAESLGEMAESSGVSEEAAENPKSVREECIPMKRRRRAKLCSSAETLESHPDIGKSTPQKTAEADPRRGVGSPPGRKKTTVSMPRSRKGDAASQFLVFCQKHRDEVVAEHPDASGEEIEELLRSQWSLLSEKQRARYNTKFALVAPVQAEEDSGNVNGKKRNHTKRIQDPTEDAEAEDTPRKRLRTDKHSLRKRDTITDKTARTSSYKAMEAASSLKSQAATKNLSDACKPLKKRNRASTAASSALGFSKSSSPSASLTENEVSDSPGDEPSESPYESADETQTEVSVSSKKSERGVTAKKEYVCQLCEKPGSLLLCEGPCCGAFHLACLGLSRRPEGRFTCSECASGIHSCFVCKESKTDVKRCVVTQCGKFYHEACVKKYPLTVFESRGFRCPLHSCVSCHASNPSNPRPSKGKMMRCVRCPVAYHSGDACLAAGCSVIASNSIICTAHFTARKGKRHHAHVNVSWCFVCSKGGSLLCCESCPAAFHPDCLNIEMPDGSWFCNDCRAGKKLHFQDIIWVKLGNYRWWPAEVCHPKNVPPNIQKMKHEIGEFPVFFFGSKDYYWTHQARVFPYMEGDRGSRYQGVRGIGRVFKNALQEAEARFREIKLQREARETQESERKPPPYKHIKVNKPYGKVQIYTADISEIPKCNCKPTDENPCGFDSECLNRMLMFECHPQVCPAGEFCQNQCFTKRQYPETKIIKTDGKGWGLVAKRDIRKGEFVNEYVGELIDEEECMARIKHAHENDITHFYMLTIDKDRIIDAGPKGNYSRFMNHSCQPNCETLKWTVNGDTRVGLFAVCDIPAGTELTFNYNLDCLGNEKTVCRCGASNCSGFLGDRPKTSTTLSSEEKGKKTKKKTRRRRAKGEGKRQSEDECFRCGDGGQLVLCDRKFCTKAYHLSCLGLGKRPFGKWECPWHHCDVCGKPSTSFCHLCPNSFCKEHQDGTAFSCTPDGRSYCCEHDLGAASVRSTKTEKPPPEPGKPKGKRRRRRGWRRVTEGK

[7] = cytotoxicity toward HCT116 cells – cell-based, CellTiter-Glo luminescence, IC50, dose response (AID 1117332); assay type: functional; settings: HCT-116
[8] = cytotoxicity toward Colo320 cells – cell-based, CellTiter-Glo luminescence, IC50, dose response (AID 1117334); assay type: functional; settings: COLO 320
[9] = molecular target: T3, Long-chain-fatty-acid--AMP ligase FadD28 (Mycobacterium tuberculosis, UniProt P9WQ59); assay: Fluorescence polarization aasay to screen for inhibitors that compete for the binding of FadD28 to a bisubstrate Measured in Biochemical System Using Plate Reader - 2147-01_Inhibitor_Dose_CherryPick_Activity.; assay type: functional, Mycobacterium tuberculosis H37Rv
T3 sequence (P9WQ59 whole entry): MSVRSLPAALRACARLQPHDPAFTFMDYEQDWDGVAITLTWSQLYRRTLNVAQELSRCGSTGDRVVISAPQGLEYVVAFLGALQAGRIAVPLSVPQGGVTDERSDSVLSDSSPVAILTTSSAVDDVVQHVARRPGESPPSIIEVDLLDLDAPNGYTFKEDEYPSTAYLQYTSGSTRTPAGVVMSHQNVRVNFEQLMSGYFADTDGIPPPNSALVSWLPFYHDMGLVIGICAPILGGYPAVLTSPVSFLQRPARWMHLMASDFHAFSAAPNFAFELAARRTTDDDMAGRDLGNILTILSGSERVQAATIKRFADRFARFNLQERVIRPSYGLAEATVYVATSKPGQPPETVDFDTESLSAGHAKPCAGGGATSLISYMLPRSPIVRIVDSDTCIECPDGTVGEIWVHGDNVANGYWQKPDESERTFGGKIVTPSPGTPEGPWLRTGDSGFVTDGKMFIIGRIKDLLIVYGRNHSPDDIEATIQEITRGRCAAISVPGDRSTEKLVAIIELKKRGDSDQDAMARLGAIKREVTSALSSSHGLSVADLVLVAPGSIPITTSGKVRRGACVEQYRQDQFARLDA

[10] = molecular target: T1, Polyadenylate-binding protein 1; assay: PABP1 MLLE–PAM2 interaction inhibitors, dose response, miRNA deadenylation inhibitor project, biochemical, fluorescence polarization, Cy5-PAM2 peptide, secondary (AID 602260); assay type: functional; settings: read-out: IC50_Mean
[11] = SNU-C1 cell viability reduction, dose response, CellTiter-Glo luminescence (AID 1117323); assay type: functional, cell-based
[12] = HeLa 2N DNA content increase, dose response, cell-based, IC50 (AID 1117349); assay type: functional
[13] = molecular target: T4, Microphthalmia-associated transcription factor (Homo sapiens, UniProt O75030); assay: TRPM1 promoter luciferase signal decrease, dose response, MITF inhibitor project, cell-based, SK-MEL-5, cherry-picked, set 3 (AID 493073); assay type: functional
T4 sequence (O75030 whole entry): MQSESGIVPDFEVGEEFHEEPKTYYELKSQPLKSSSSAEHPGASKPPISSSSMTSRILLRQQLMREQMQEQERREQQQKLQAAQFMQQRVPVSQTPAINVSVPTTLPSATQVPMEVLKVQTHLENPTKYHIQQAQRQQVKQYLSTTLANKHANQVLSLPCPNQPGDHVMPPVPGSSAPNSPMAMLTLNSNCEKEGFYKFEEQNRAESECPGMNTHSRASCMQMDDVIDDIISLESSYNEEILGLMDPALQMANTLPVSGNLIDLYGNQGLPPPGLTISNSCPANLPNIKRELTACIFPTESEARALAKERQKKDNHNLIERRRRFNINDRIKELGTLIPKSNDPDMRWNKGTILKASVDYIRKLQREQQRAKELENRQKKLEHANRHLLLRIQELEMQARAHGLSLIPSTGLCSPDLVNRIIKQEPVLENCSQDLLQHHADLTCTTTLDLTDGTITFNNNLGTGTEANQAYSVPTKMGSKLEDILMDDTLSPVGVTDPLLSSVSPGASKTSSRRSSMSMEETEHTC

[14] = cytotoxicity toward HT-29 cells – cell-based, CellTiter-Glo luminescence, IC50, dose response (AID 1117330); assay type: functional
[15] = inhibitors of firefly luciferase expression or activity, dose response, H4 neuroglioma cells, luminescence (AID 1990); assay type: functional, cell-based
[16] = inhibitors of SNCA 5'UTR-driven reporter translation, confirmation, H4 neuroglioma cells, luminescence (AID 1988); assay type: functional, cell-based
[17] = Luminescence Cell-Based Dose Response HTS to Identify Inhibitors of 5'UTR Stem-Loop Driven Prion Protein mRNA Translation in H4 Neuroglioblastoma Cells. [Related pubchem assays: 1827 (Project Summary), 1813 (Primary HTS)]; assay type: functional
[18] = Vero cell cytotoxicity, dose response, cytotoxicity control for Vif-APOBEC3G degradation inhibitor project, Vero cells (AID 1117358); assay type: functional; settings: Human immunodeficiency virus 1, Vero

T1 sequence (P11940 whole entry): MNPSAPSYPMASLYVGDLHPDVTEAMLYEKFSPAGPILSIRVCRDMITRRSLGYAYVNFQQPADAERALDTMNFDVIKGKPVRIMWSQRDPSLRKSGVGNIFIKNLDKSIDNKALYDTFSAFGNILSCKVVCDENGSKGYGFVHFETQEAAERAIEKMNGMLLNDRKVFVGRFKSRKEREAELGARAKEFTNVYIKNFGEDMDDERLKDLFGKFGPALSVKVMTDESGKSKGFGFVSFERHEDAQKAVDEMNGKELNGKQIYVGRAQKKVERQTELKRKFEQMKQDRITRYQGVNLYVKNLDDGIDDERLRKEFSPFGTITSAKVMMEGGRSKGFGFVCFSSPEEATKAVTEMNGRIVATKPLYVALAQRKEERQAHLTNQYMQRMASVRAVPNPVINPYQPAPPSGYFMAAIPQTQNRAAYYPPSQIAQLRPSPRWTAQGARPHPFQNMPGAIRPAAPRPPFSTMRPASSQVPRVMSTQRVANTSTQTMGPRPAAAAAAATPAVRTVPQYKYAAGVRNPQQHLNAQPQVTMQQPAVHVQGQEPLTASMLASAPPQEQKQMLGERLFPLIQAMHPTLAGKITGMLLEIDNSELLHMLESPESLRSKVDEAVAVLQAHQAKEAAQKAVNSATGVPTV

Compound	IC50 [1]	IC50 [2]	IC50 [3]	IC50 [4]	IC50 [5]	AC50 [6]	IC50 [7]	IC50 [8]	AC50 [9]	IC50 [10]	IC50 [11]	IC50 [12]	AC50 [13]	IC50 [14]	EC50 [15]	EC50 [16]	EC50 [17]	CC50 [18]
CC[n+]1c(-c2ccccc2)c2cc(N)ccc2c2ccc(N)cc21 [HOMIDIUM BROMIDE]	> 20 µM (inactive)	> 10 µM (inactive)	> 20 µM (inactive)	40.4 µM (inactive)	3.35 µM (active)	0.293 µM (active)	4.44 µM (active)	> 20 µM (inactive)	27.4 µM (active)	> 66 µM (inactive)	> 20 µM (inactive)	> 10 µM (inactive)	2.42 µM (active)	> 20 µM (inactive)	–	–	–	–
COc1cc(NC(=O)NCCN2CCN(c3ccc(Cl)cc3)CC2)ccc1C	–	–	–	–	–	–	–	–	–	–	–	–	–	–	20.5 µM (active)	> 120 µM (not active)	> 120 µM (not active)	> 40 µM (active)
